Laboratory results reported in patent US20040214221A1, “High density labeling of DNA with modified or "chromophore" carrying nucleotides and DNA polymerases used” (priority 1999, published 2004).
Like-named read-outs stand apart in the source and are kept apart here.

Key:
Vent exo^− polymerase = Vent exo^− polymerase (Thermococcus litoralis, UniProt P30317, D141A/DEL1082-1471/DEL495-1032/E143A); assay: Primer extension with modified dNTPs, Vent exo- polymerase; format: biochemical, Thermococcus species; details: template NucT15 (18 possible)
Sequence of Vent exo^− polymerase (P30317 with tags, fused parts or gaps D141A/DEL1082-1471/DEL495-1032/E143A): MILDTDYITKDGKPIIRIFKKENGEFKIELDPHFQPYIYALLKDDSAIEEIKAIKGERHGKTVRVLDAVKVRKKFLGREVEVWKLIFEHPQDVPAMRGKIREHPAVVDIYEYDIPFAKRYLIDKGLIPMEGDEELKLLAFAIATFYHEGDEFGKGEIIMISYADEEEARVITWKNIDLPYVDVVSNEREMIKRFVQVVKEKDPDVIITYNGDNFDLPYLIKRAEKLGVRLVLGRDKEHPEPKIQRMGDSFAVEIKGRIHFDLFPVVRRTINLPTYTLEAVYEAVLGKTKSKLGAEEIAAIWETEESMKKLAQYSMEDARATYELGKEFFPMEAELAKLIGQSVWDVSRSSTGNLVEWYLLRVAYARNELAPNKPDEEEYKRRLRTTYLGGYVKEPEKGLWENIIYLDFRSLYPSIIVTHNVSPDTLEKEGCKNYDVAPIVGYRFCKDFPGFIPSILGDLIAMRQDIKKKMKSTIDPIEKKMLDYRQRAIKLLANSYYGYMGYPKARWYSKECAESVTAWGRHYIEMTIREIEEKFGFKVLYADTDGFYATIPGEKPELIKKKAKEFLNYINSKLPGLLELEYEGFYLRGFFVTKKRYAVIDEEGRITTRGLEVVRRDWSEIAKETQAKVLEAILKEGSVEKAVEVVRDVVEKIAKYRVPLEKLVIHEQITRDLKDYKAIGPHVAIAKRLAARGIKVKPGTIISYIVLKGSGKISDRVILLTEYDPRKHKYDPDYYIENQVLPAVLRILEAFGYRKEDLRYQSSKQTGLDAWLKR

Tgo exo^− polymerase = format: biochemical, Thermococcus species
[1] = tested on: Klenow-fragment of Chy DNA pol I; assay: Primer extension with modified dNTPs, Chy Klenow polymerase; format: biochemical, Carboxydothermus hydrogenoformans; details: template NucT15

For Cy5-10-dUTP, the positions inserted (Vent exo^− polymerase) was 13.

TMR-6-dUTP [TM-Rhodamine-dUTP] gave a positions inserted (Vent exo^− polymerase) of 14.

“Rhodamin-green-5(6)-carboxyamido-ε-aminocaproyl-[5-(3-aminoallyl)-2′desoxy-uridin-5′-triphosphate] [Rhodamine-green-X-dUTP]” was tested, and the “insertions in neighbouring positions” value (Tgo exo^− polymerase) was “up to 18”, the “major products (number of insertions)” value (Tgo exo^− polymerase) was 13-17 and the “substrate activity / incorporation” value (Tgo exo^− polymerase) was “very good substrate for the polymerase”.

With Fluorescein-12-dUTP the “elongation of Hex7c7Gd stretch with dUTP derivative” value (from here on “elongation of Hex7c7Gd stretch”) (Tgo exo^− polymerase; template NucT3, 50 μM each, 0,1 and 1 unit polymerase) was “complete elongation” and the “product at lower polymerase concentration” value (Tgo exo^− polymerase; template NucT15, 0,1 unit/reaction) was “full length products were detectable”.

With DIG-11-dUTP the “product at lower polymerase concentration” value (Tgo exo^− polymerase) was “full length products were detectable” and the “substrate activity / incorporation” value (Tgo exo^− polymerase) was “high substrate activity”.

“Rhodamin-green-5(6)-carboxyamido-[5-(3-aminoallyl)-2′desoxy-uridin-5′-triphosphate] [Rhodamine-green-dUTP]” was tested, and the “insertions in neighbouring positions” value (Tgo exo^− polymerase) was 15-16.

In the case of `Cc1c(CC(=O)NCCCCCC(=O)NC/C=C/c2cn([C@H]3C[C@H](O)[C@@H](COP(=O)(O)OP(=O)(O)OP(=O)(O)O)O3)c(=O)[nH]c2=O)c(=O)oc2cc(N)ccc12` [AMCA-6-dUTP], the “elongation of Hex7c7Gd stretch” value (Tgo exo^− polymerase) is reported as “complete elongation” and the “substrate activity” value [1] is reported as “high substrate activity”.

`CCCCC#Cc1cn([C@H]2C[C@H](O)[C@@H](COP(=O)(O)OP(=O)(O)OP(=O)(O)O)O2)c2nc(N)[nH]c(=O)c12` [Hex^7c^7Gd, 7-Hexinyl-7-desaza-dGTP] was tested, and the consecutive incorporations (Tgo exo^− polymerase) was “five” and the subsequent positions polymerized (Tgo exo^− polymerase) was “up to 21”.

With `CCCCC#Cc1cn([C@H]2C[C@H](O)[C@@H](COP(=O)(O)OP(=O)(O)OP(=O)(O)O)O2)c2ncnc(N)c12` [Hex^7c^7Ad, 7-Hexinyl-7-Desaza-dATP] the “adjacent positions into which derivative was incorporated” value (Tgo exo^− polymerase) was 15.

For `O=C(CCCCCNC(=O)CCCNC(=O)CCCC[C@@H]1SC[C@@H]2NC(=O)N[C@@H]21)NC/C=C/c1cn([C@H]2C[C@H](O)[C@@H](COP(=O)(O)OP(=O)(O)OP(=O)(O)O)O2)c(=O)[nH]c1=O` [Biotin-16-dUTP], the “elongation of Hex7c7Gd stretch” value (Tgo exo^− polymerase) was “a high molecular weight product is formed”, the “insertions in neighbouring positions” value (Tgo exo^− polymerase) was 18 and the “product at lower polymerase concentration” value (Tgo exo^− polymerase) was “full length products were detectable”.
